# From patent US20210353611A1, “METHODS OF TREATING AMYOTROPHIC LATERAL SCLEROSIS” (Yeda Research and Development Co. Ltd., priority 2018, published 2021)
# Where a name gives a salt, the structure may show the parent alone.
# Assays:
# [1] = NAM levels in CSF and sera of mice (targeted metabolomics); conditions: NAM 49.28 mg/kg/week s.c. osmotic pumps; SOD1-Tg mice vs water-treated controls
# Description: Mice were anesthetized by i.p. injection of ketamine (100 mg/kg) and xylazine (10 mg/kg). The skin of the neck was shaved, and the mouse was placed prone on the stereotaxic instrument. The head was secured with the head adaptors. […] Under the dissection microscope, the subcutaneous tissue and muscles (m. biventer cervicis and m. rectus capitis dorsalis major) were separated by blunt dissection with forceps. A pair of micro-retractors is used to hold the muscles apart. The dura mater was blotted dry with sterile cotton swab. CSF was collected using a capillary tube to penetrate into the cisterna magna through the dura mater, lateral to the arteria dorsalis spinalis, immediately frozen in liquid nitrogen and stored at −80° C.
# The samples (in 50% Methanol) were dried in a speed vac to blow off the methanol before drying to completion in a lyophilizer. All samples were re-dissolved in 100 μl of 0.1% formic acid.
# Liquid Chromatography: Liquid chromatography was performed on a Waters Acquity UPLC system. […] Mobile phase consisted of (A) water and (B) acetonitrile each containing 0.1% formic acid. […]
# Mass Spectrometry: LC-MS/MS analysis was performed on a Waters Xevo triple quadrupole equipped with a Zspray ESI source. […] TargetLynx (Waters) was used for Qualitative and Quantitative analysis.
# SOD1-Tg mice [2] = experiment: Motor function tests (rotarod, hanging-wire grip test, neurological scoring) in ALS mouse model; assay type: in vivo; conditions: subcutaneously implanted mini osmotic pumps, continuous administration; vs vehicle-treated SOD1-Tg mice
# From the text: G93A mSOD1-Tg mice on a C57BL/6 background were used. In all experiments, age- and gender-matched mice were used and WT littermates as controls. Mice were 40 days of age at the beginning of experiments. All mice were kept at a strict 24 hr reverse light-dark cycle, with lights being turned on from 10 pm to 10 am. Tryptophan-deficient diet (A10033Yi, Research diets, NJ, USA) was applied from the age of 40 days until the experimental end-point. For antibiotic treatment, mice were given a combination of vancomycin (0.5 g/l), ampicillin (1 g/l), kanamycin (1 g/l), and metronidazole (1 g/l) in their drinking water from the age of 40 days as previously described (Levy et al., 2015). […]
# Vehicle control pumps contained equivalent volume of Ultra-pure water. […] The cut was then closed with sterile surgical clips and the animals were carefully monitored for any signs of stress, bleeding, pain, or abnormal behavior. […]
# Rotarod: To assess motor coordination and balance, each mouse was tested with a rotarod device (Panlab Le8500 Harvard Apparatus, Spain), in acceleration speed mode (increasing from 4 rpm to 40 rpm during 10 min), with a maximum test time of 5 min. […] Each mouse was recorded three times at the ages of 60, 80, 100, 120 and 140 days. The apparatus automatically recorded the elapsed time when the mouse fell from the spindle. […]
# SOD1-Tg mice [3] = experiment: Survival of SOD1-Tg mice; assay type: in vivo, mouse; conditions: NAM s.c. osmotic pumps vs vehicle; p=0.1757, Log-rank test
# Description: From the age of 130 days, mice were monitored daily. The endpoint was defined by reaching neurological score of 4 and/or more than 15% reduction in body weight. The probability of survival was calculated using the Kaplan-Meier method, and statistical analysis was performed using a log-rank test.
SMILES,NAM levels in sera [1],ALS symptoms / behavioral and neurological motor tests (SOD1-Tg mice [2]),Survival (SOD1-Tg mice [3])
"NC(=O)c1cccnc1 [NAM, Nicotinamide]",significantly increased,performed significantly better,non-significantly trend to improve survival
O=S(=O)(O)Oc1ccccc1 [Phenol sulfate],–,did not affect ALS symptoms,–
